The METLIN SMRT retention time set (Domingo-Almenara et al. 2019)

Assay: gradient 5% acetonitrile 3 min, to 50% in 2 min, to 85% in 15 min, held 3 min, 100 µL/min
Settings: column: Zorbax Extend-C18 2.1 x 50 mm; eluents: water / acetonitrile, 0.1% formic acid
Summary of the method: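 The system's dead and dwell volumes were 40 μL and 900 μL, with a Zorbax Extend-C18 column (2.1 × 50 mm, 1.8 μm) run at 100 μL/min in water and acetonitrile containing 0.1% formic acid each. Pure standards were analyzed in mixtures of ~100 molecules by HPLC–quadrupole time-of-flight mass spectrometry in positive and negative ionization mode. Retention time was assigned from computationally picked, manually inspected adduct peaks.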

| RP-LC retention time [s] | Compound |
| --- | --- |
| 818 | CN1C(=O)c2cccnc2Sc2cc(C(=O)NCc3cccc(Cl)c3)ccc21 |
| 995 | COc1ccc(-c2nnc(Cc3nc(-c4cccc(Cl)c4)no3)o2)cc1OC |
| 714 | Cc1cccc(NC(=O)Nc2cccc(-c3ccc(N4CCOCC4)nn3)c2)c1 |
| 1160 | Cc1ccccc1N1CCN(Cc2nc(-c3ccc(N4CCCC(C)C4)nc3)no2)CC1 (configuration not stated) |
| 841 | COCCCNC(=O)CCc1cn(-c2ccccc2)nc1-c1ccc2c(c1)OCO2 |
| 948 | O=C(NCC(c1cccs1)S(=O)(=O)c1ccc(F)cc1)c1nc2ccccc2s1 (configuration not stated) |
| 1090 | O=C(C1=Cc2ccccc2OC=C1)N1CCc2ccccc2C1 |
| 1140 | COc1ccc(-c2noc(-c3nnn4c3COC(c3ccc(Cl)cc3)C4)n2)c(OC)c1 (configuration not stated) |
| 1300 | CC(C)(C)c1csc(-c2csc(S(=O)(=O)Nc3ccc(Cl)cc3)c2)n1 |
| 629 | O=C(Nc1ccc(-c2cn3cccnc3n2)cc1)c1cccs1 |
| 1130 | CC(C)c1noc(C2(NC(=O)c3cccc(Cl)c3)CCCCC2)n1 |
| 666 | CCN1CCN(C(=O)Nc2ccc(Br)cc2)c2cccnc21 |
| 1010 | CCn1nccc1C(=O)Nc1ccc(-c2nnc3n2CCCC3)cc1 |
| 682 | CC(=O)Nc1ccc(-n2cnc(C(=O)N3CCN(c4ccc(C)cc4)CC3)c2)nc1 |
| 678 | O=C(Nc1ccc(-c2ccn[nH]2)cc1)c1cccnc1 |
| 671 | CCc1ccc(CNC(=O)C2CC(=O)N(c3ccc4oc(C)nc4c3)C2)cc1 (configuration not stated) |
| 849 | Cn1c(=O)c(N2CCC(NC(=O)Nc3ccc(F)cc3)CC2)nc2ccccc21 |
| 645 | CNC(=O)c1cn(-c2ccc(SCC(=O)Nc3ccc4c(c3)OCCO4)nn2)cn1 |
| 653 | Cc1ncc2c(n1)CCN(C(=O)c1cccc(Cl)c1)C2 |
| 710 | CCc1ccc(NC(=O)NCC(c2cccnc2)c2c[nH]c3ccccc23)cc1 (configuration not stated) |
| 1180 | CCOc1ccc(S(=O)(=O)N2CCC(c3noc(-c4ccccc4C)n3)CC2)cc1 |

| RP-LC retention time [s] | Compound |
| --- | --- |
| 974 | COc1ccc(-c2noc(C3CCCN3C(=O)Nc3ccc(OC)c(Cl)c3)n2)cc1 (configuration not stated) |
| 1260 | Cc1cccc(-c2noc(C3CCCN3S(=O)(=O)c3cc(C)ccc3C)n2)c1 (configuration not stated) |
| 871 | O=C(Cn1nc2c(Oc3ccccc3)nccn2c1=O)NCCCc1ccccc1 |
| 586 | O=C(NCc1cccnc1)c1ccc(-c2cccs2)nc1 |
| 767 | O=C(c1cnccn1)N1CCCn2nc(-c3cccc(Cl)c3)cc2C1 |
| 965 | O=C(Cn1cccc1-c1nnc(C2CCC2)o1)Nc1ccc(F)c(Cl)c1 |
| 825 | COc1ccccc1NC(=O)N1CCC(c2nnc(-c3ccccc3OC)s2)CC1 |
| 1060 | Cc1cccc(-c2noc(CN3N=NC4C(=O)N(c5cccc(Cl)c5)C(=O)C43)n2)c1 (configuration not stated) |
| 805 | O=C(NCc1ccc2c(c1)OCO2)C1=C2CCCN2c2ccccc2S1(=O)=O |
| 719 | O=C(c1cccc(Nc2c(-c3ccc(Cl)cc3)nc3cnccn23)c1)N1CCOCC1 |
| 727 | Cn1nc(C(=O)N2CCN(c3ccccc3Cl)CC2)ccc1=O |
| 634 | Cc1cc(C(=O)N2CCOCC2)nn1CC(=O)NCc1ccc2c(c1)OCO2 |
| 1020 | Cc1ccc(CN2CC(=O)N3CCc4c([nH]c5ccccc45)C3(C)C2=O)cc1 (configuration not stated) |
| 1120 | O=C(Nc1nc(-c2ccc3c(c2)OCCO3)cs1)c1cc(Cl)sc1Cl |
| 802 | COc1ccc(-c2ncc(NC(=O)C(C)C)cn2)cc1 |
| 843 | CCOc1ccc(-c2[nH]nc3nc(-c4cccc(F)c4)cc(C(=O)O)c23)cc1 |
| 723 | O=C(Nc1cccc(Cl)c1)Nc1ccc2nc3n(c(=O)c2c1)CCCC3 |
| 813 | COC(=O)c1ccc(-c2nc3cnccn3c2Nc2ccc3c(c2)OCCO3)cc1 |
| 995 | CC1CCN(C(=O)c2ccc(OCC3CCCN(C(=O)c4ccc(F)cc4)C3)cc2)CC1 (configuration not stated) |
| 776 | O=C(CCCc1ccccc1)N1CCC(c2noc(-c3cnccn3)n2)C1 (configuration not stated) |

Further lines, the compound ahead of its results:

| Compound | RP-LC retention time [s] |
| --- | --- |
| CCn1cnc(S(=O)(=O)N2CCC(C(=O)Nc3nccs3)CC2)c1 | 636 |
| CC(=O)Nc1cc2c(cc1S(=O)(=O)c1ccc(C)cc1)n(C)c(=O)n2C | 683 |
| Cc1cc(NC(=O)CSc2nnnn2C)sn1 | 596 |
| CCOc1ccc(CCNC(=O)c2cc3sc(Cl)cc3n2CC)cc1OCC | 1200 |
| CCn1ccc(NC(=O)c2cccc(C)c2)n1 | 743 |
| Cc1cnc(-c2ccccc2)n1CCNS(=O)(=O)N(C)C | 572 |
| COc1cc(OC)c(NC(=O)Nc2cc(C)on2)cc1Cl | 865 |
| CCc1cc(-c2csc(S(=O)(=O)Nc3ccc(C(C)C)cc3)c2)on1 | 1100 |
| COc1ccc2c(c1)C1(CCN(C(=O)NCc3ccc(F)cc3)C1)C(=O)N2C (configuration not stated) | 755 |
| CN1CCC([C@@H]2CN(S(=O)(=O)c3ccc(Cl)s3)C[C@H]2C(N)=O)CC1 | 573 |
| CC1(C)C(=O)N(CC(=O)NCc2ccccc2Cl)c2ccccc21 | 881 |
| CCN(C(=O)Cn1c(C(C)NC(=O)c2ccco2)nc2ccccc21)c1ccccc1 (configuration not stated) | 704 |
| O=C(C1CCN(c2nc3ccc(-c4cncnc4)nc3s2)CC1)N1CCCCC1 | 787 |
| COc1ncc(C(=O)N2CCCC2)cn1 | 589 |
| CCOC(=O)c1cc(S(=O)(=O)N2CCCC2C(=O)Nc2cccc(C)n2)cn1C (configuration not stated) | 847 |
| CC(C)c1nnc(-c2ccc(S(=O)(=O)N3CCN(C4CCCCC4)CC3)o2)o1 | 644 |
| CN(C(=O)Cc1ccsc1)C1CCc2nn(C)c(=O)n2CC1 (configuration not stated) | 600 |
| Cc1ccc2nc(-c3ccc(C)c(NC(=O)C(C)C)c3)[nH]c2c1 | 654 |
| CCCS(=O)(=O)N1CC(N(C)Cc2cccnc2)C1 | 559 |
| CC(C)(Oc1ccc(Cl)cc1)C(=O)NC1CCCCC1N1C(=O)CSC1=O (configuration not stated) | 972 |
| COc1ccc(Cc2nn3c(CSc4ccccc4)nnc3s2)cc1 | 937 |
| COc1ccc(CN2C=C(C(=O)OCc3noc(C4CCCCC4)n3)C(C)=NS2(=O)=O)cc1 | 1150 |
| CNC(=O)C1CCCN(S(C)(=O)=O)CCC(=O)NCC1 (configuration not stated) | 539 |
| COc1ccc(S(=O)(=O)N2C[C@H]3CN(S(=O)(=O)c4ccccc4)C[C@@H](C2)O3)cc1 | 893 |
| CCc1nc2cc(N3CCC(C(=O)NCCN4CCCCC4)CC3)cnc2nc1CC | 580 |
| CCc1ccc(S(=O)(=O)N2CCC(C)(C(=O)NCc3ccccc3C)CC2)cc1 | 1020 |

| Compound | RP-LC retention time [s] |
| --- | --- |
| O=C(NCCc1csc(-c2cccs2)n1)C1CCN(C(=O)Cc2cccc(F)c2)CC1 | 797 |
| CCOC(=O)C1CCN(C(=O)C(C)n2c(=O)c(C(F)(F)F)nc3cc(C)c(C)cc32)CC1 (configuration not stated) | 1170 |
| CC(C)NC(=O)CC1Sc2ncccc2N(C)C1=O (configuration not stated) | 604 |
| CCNc1nc(-c2nnc(-c3cccc(C)c3)o2)nc2ccccc12 | 932 |
| CCc1noc(-c2nnn3c2COC(c2ccc(OC)cc2)C3)n1 (configuration not stated) | 941 |
| CCCNC(=O)N1CCC(c2cnn(-c3ccccc3)c2)CC1 | 779 |
| CCc1nnc(-c2ccc(S(=O)(=O)NC3CCCC3)o2)o1 | 815 |
| CCCCN(CC)C(=O)Cn1nc(Cc2ccncc2)c2ccccc2c1=O | 624 |
| COc1ccc(S(=O)(=O)N2CCN(CCc3cn(C)c4ncccc34)CC2)cc1 | 609 |
| CCOc1ccc(CN2CC(N(Cc3ccncc3)S(C)(=O)=O)C2)cc1 | 560 |
| O=C(C(=O)N1CCN(c2ccccn2)CC1)c1ccc[nH]1 | 556 |
| CC1=NOC(C)(CNC(=O)NC2CCCCC2)C1 (configuration not stated) | 659 |
| Cc1nc(-c2nnn(-c3ccccc3)c2C)sc1C(=O)NCCc1cccs1 | 936 |
| O=C(Cn1c(=O)n(C2CCCCC2)c2ncccc21)NCc1ccccc1 | 895 |
| CNCc1ccc(-c2ccccc2Cl)o1 | 642 |
| CC(=O)N1CCCC(c2nc(CNC(=O)C3CCC3)cs2)C1 (configuration not stated) | 631 |
| CCOC(=O)c1[nH]c(C)c(CCC(=O)NC(C)c2ccc3c(c2)OCCO3)c1C (configuration not stated) | 821 |
| CN(C)S(=O)(=O)c1ccc2c(c1)N(CC(=O)NCc1cccc(F)c1)C(=O)C1CCCCN21 (configuration not stated) | 900 |
| CN(Cc1ccc(Cl)c(F)c1)C1CCc2nnc(C3CCOCC3)n2CC1 (configuration not stated) | 590 |
| Cc1cc(C)cc(N2C(=O)CN(S(C)(=O)=O)CC2(C)C(=O)NCc2ccc(F)cc2)c1 (configuration not stated) | 827 |
| CCCNc1cc(N2CCC(CCC(=O)N3CCN(c4ccccc4)CC3)CC2)ncn1 | 603 |
| Cc1noc2ncn(CC(=O)NCc3cccc(F)c3)c(=O)c12 | 712 |
| CCC1CCCCN1CCCNC(=O)c1ccnc(-c2cccs2)c1 (configuration not stated) | 627 |
| CCC(=O)N(C1CCOCC1)C1CCN(S(=O)(=O)c2ccc(CC)cc2)CC1 | 908 |
| O=C(Nc1nccs1)C1CCCN(S(=O)(=O)c2cc(-c3noc(C4CCCC4)n3)cs2)C1 (configuration not stated) | 1060 |
